These results are taken from patent publication US9211340B2, “Means and methods of enhancing delivery to biological systems” (priority 2006, dated 2015).

No end group written: not given here.

One experiment relates to SCF-reporter construct. Description: ER-to-Golgi transport of SCF-reporter construct (Golgi-staining of cells). It is filed as cell-based. The settings on record: 2-hours pretreatment and 1-hour ER-to Golgi transport; FIG. 4.
The next experiment has as its system SCF. Description: SCF transport to the cell surface (SCF staining). The format is cell-based. The settings on record: 100 μM peptide, 16 hours; FIG. 5. Here is the method: FIG. 5: Arginine-ester peptide delivery and inhibition of SCF transport to the cell surface (16 hours). Left: No peptide; normal SCF membrane staining.
Cos-7 cells were plated overnight on glass coverslips in 10% serum containing DMEM. For the analysis, we suspended the peptide at 1 mM in PBS (phosphate buffered saline) which was diluted to final concentration in full medium. We washed the cells after 15 or 30 minutes and washed once with PBS and fixed with paraformaldehyed (4%) for 10 minutes and took images in PBS.

“Arginine-ester peptide: 20-mer SCF peptide (SEQ ID NO: 1) with glutamate carboxylates esterified with a guanidinium alkanol (NEEDNEISMLQEKEREFQEV; also: glutamate carboxylates esterified with a guanidinium alkanol (places and alkanol not given here); listed as Homo sapiens)”: the “% of cells exhibiting Golgi-staining of reporter construct (export of SCF-reporter construct)” value with SCF-reporter construct is recorded as “block export of a SCF-reporter construct”. For the same substance, the “inhibition of SCF transport to the cell surface (SCF staining)” value in the experiment with SCF is on record as “shift to intracellular SCF staining”.
